Experimental data as given in US20110052503A1, “BIODEGRADABLE CONTRAST AGENTS” (IOPHARMA TECHNOLOGIES AB, priority 2007, published 2011).

Assay: Stability of iohexyl hexa-acetate in human plasma
Settings: iohexyl formed from 300 μM IHA in citrated plasma, 37° C., FIG. 1
Procedure: A stock solution of iohexyl hexa-acetate was prepared by adding 100 mg IHA to a 100 ml volumetric flask, followed by 1.0 ml DMSO and deionised water to 100 ml, giving a final concentration of 1.0 mg/ml. The plasma solution was prepared by adding 1.61 ml of the IHA stock solution to 3.39 ml of citrated bovine plasma, giving a final concentration of 300 μM. The citrated human plasma was incubated at 37° C., and 0.25 ml plasma removed at 1, 2, 3, 4, 6, 8, 24, 30 and 48 h. Proteins were discarded from the samples by centrifugal filtration and the resulting filtrates analyzed by HPLC.

concentration of iohexyl in plasma, first 8 h (first 8 h): constant | concentration of iohexyl in plasma, 8 to 48 h (from 8 to 48 h): increases dramatically
Compound: CC(=O)N(CC(O)CO)c1c(I)c(C(=O)NCC(O)CO)c(I)c(C(=O)NCC(O)CO)c1I (centres unmarked) [iohexyl]
